# Test results as given in ChEMBL document CHEMBL4251601 (Eur J Med Chem, 2018).
# Experiments:
# [1] = molecular target: G protein-coupled receptor kinase 4 (Homo sapiens) (UniProt P32298); assay: Inhibition of recombinant human full length GST-tagged GRK4 expressed in baculovirus expression system at 1 uM by Z'-Lyte assay relative to control
# [2] = molecular target: Tyrosine-protein kinase Srms (Homo sapiens) (UniProt Q9H3Y6); assay: Inhibition of recombinant human full length GST-tagged SRMS expressed in baculovirus expression system at 0.1 uM by TR-FRET assay relative to control
# Sequence of Tyrosine-protein kinase Srms (Homo sapiens) (Q9H3Y6 whole entry): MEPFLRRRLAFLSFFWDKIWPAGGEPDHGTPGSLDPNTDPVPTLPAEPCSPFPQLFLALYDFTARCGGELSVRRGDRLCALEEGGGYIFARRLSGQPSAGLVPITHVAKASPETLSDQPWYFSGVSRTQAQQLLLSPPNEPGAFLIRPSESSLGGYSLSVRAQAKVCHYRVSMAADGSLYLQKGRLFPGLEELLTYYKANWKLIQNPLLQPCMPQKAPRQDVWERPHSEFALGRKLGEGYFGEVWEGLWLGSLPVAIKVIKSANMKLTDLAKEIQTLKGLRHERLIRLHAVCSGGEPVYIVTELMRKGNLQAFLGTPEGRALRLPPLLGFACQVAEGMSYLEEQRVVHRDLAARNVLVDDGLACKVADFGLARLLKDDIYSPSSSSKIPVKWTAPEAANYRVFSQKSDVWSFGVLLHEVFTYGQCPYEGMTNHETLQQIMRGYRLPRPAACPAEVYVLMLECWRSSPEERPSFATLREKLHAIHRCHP
# [3] = molecular target: PI3-kinase p110-alpha/p85-alpha (Homo sapiens) (UniProt P27986+P42336); assay: Inhibition of recombinant full-length human N-terminal His6-tagged p110alpha/p85alpha expressed in baculovirus infected Sf21 cells at 0.1 uM by ADP-Glo assay relative to control
# [4] = molecular target: CDK8/Cyclin C (Homo sapiens) (UniProt P49336+P24863); assay: Inhibition of recombinant full length human His-tagged CDK8/Cyclin-C expressed in baculovirus expression system at 0.1 uM by LanthaScreen assay relative to control
# [5] = molecular target: Serine/threonine-protein kinase MARK1 (Homo sapiens) (UniProt Q9P0L2); assay: Inhibition of recombinant human full length GST-tagged MARK1 expressed in baculovirus expression system at 1 uM by Z'-Lyte assay relative to control
# [6] = system: U-87 MG; assay: Antitumor activity against luciferase-fused human U87MG cells orthotopically xenografted in nude mouse assessed as increase in mouse life span at 50 mg/kg, po qd for 5 weeks relative to control; type: functional, U-87MG ATCC; conditions: 840 h
# [7] = system: Epidermal growth factor receptor (Homo sapiens), P00533 [UNDEFINED MUTATION]; assay: Inhibition of recombinant human EGFR d746 to 750 deletion/T790M mutant at 1 uM by TR-FRET assay relative to control
# [8] = molecular target: Protein-tyrosine kinase 6 (Homo sapiens) (UniProt Q13882); assay: Inhibition of recombinant human full length His-tagged PTK6 expressed in baculovirus expression system at 0.1 uM by TR-FRET assay relative to control
# [9] = molecular target: Tyrosine-protein kinase receptor UFO (Homo sapiens) (UniProt P30530); assay: Inhibition of recombinant human N-terminal GST tagged AXL (473-end residues) expressed in baculovirus infected Sf9 cells at 0.1 uM by Z'-Lyte assay relative to control
# [10] = molecular target: Receptor tyrosine-protein kinase erbB-2 (Homo sapiens) (UniProt P04626); assay: Inhibition of recombinant human His-tagged ERBB2 cytoplasmic domain expressed in baculovirus expression system at 0.1 uM by Z'-Lyte assay relative to control
# Sequence of Receptor tyrosine-protein kinase erbB-2 (Homo sapiens) (P04626 whole entry, the tested form may be a part): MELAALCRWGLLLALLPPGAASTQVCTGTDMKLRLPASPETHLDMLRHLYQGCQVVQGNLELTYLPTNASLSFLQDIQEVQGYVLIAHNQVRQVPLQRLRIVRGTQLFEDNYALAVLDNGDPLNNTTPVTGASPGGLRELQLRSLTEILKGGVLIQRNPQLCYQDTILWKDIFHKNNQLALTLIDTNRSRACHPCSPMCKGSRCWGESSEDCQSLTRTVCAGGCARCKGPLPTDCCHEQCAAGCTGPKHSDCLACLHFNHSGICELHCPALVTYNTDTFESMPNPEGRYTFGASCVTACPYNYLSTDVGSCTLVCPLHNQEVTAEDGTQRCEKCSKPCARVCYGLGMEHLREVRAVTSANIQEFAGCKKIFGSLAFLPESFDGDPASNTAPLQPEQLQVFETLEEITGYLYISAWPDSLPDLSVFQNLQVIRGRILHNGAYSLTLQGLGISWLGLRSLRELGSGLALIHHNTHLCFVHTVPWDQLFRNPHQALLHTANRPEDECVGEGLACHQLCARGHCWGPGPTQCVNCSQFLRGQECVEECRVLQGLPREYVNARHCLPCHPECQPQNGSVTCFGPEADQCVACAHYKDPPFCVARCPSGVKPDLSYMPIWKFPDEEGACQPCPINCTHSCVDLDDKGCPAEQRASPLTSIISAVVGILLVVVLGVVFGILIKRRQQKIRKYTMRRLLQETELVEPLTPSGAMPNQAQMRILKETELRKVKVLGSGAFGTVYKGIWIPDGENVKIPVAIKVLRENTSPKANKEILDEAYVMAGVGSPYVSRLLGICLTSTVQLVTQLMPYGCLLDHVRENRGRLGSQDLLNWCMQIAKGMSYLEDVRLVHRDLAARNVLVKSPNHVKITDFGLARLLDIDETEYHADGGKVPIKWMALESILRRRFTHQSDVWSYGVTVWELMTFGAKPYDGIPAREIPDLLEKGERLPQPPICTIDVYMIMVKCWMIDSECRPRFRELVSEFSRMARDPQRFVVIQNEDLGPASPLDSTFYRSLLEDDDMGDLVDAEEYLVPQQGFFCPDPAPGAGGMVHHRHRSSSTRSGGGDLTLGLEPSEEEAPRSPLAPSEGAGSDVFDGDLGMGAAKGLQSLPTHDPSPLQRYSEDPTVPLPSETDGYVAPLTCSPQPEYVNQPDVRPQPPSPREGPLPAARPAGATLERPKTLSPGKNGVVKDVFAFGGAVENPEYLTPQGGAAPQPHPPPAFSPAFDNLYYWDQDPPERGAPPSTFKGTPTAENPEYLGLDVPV
# [11] = molecular target: G protein-coupled receptor kinase 5 (Homo sapiens) (UniProt P34947); assay: Inhibition of recombinant human full length GST-tagged GRK5 expressed in baculovirus expression system at 0.1 uM by Z'-Lyte assay relative to control
# [12] = molecular target: Casein kinase II subunit alpha (Homo sapiens) (UniProt P68400); assay: Inhibition of recombinant full length human His-tagged CK2alpha1 expressed in baculovirus expression system at 0.1 uM by Z'-Lyte assay relative to control
# Sequence of Casein kinase II subunit alpha (Homo sapiens) (P68400 whole entry, looked up): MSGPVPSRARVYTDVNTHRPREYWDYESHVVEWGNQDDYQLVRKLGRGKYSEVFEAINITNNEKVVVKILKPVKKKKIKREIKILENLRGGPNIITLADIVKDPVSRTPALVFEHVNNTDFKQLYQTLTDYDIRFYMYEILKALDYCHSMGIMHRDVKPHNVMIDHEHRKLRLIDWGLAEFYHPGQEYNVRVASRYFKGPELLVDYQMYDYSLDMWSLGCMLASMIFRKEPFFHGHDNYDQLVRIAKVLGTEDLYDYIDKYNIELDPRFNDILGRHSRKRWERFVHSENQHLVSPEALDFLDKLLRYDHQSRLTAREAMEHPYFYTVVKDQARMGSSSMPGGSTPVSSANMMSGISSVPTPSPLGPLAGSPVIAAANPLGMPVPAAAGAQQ
# [13] = Clearance in Sprague-Dawley rat at 2 mg/kg, iv administered as single dose by LC-MS/MS analysis; type: ADME, organism-based; conditions: in vivo
# [14] = molecular target: Serine/threonine-protein kinase PAK 4 (Homo sapiens) (UniProt O96013); assay: Inhibition of recombinant human GST-tagged PAK4 expressed in baculovirus expression system at 0.1 uM by Z'-Lyte assay relative to control
# [15] = system: U-87 MG; assay: Antitumor activity against luciferase-fused human U87MG cells orthotopically xenografted in nude mouse assessed as tumor growth inhibition at 25 mg/kg, po qd for 4 weeks by bioluminescence imaging relative to control; type: functional, U-87MG ATCC; conditions: 672 h, read-out: TGI
# [16] = Unbound Cmax in CD-1 mouse brain at 10 mg/kg, po administered as single dose by LC-MS/MS analysis; type: ADME, organism-based; conditions: in vivo
# [17] = molecular target: STE20-like serine/threonine-protein kinase (Homo sapiens) (UniProt Q9H2G2); assay: Inhibition of recombinant human full length GST-tagged SLK expressed in baculovirus expression system at 0.1 uM by LanthaScreen assay relative to control
# [18] = molecular target: RAC-gamma serine/threonine-protein kinase (Homo sapiens) (UniProt Q9Y243); assay: Inhibition of recombinant full length human His-tagged AKT3 expressed in baculovirus expression system at 1 uM by TR-FRET assay relative to control
# Sequence of RAC-gamma serine/threonine-protein kinase (Homo sapiens) (Q9Y243 whole entry): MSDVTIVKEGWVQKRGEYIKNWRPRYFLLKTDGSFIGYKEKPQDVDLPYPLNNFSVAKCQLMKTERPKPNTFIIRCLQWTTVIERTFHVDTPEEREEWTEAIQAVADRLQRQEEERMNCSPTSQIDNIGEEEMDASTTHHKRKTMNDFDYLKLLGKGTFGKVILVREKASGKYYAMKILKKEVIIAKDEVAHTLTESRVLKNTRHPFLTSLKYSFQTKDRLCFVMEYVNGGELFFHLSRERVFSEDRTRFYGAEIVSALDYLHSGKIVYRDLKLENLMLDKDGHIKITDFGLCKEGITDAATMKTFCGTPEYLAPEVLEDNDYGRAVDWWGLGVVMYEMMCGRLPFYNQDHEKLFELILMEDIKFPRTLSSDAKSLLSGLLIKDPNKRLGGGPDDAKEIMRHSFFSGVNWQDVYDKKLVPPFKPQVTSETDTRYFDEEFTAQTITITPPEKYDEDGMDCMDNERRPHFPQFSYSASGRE
# [19] = molecular target: RAC-beta serine/threonine-protein kinase (Homo sapiens) (UniProt P31751); assay: Inhibition of recombinant full length human His-tagged AKT2 expressed in baculovirus expression system at 0.1 uM by TR-FRET assay relative to control
# [20] = AUC (0 to 24 hrs) in Sprague-Dawley rat at 2 mg/kg, iv administered as single dose by LC-MS/MS analysis; type: ADME, organism-based; design: dose 2 mg/kg, time < 24 hr, route intravenous; conditions: in vivo
# [21] = Oral bioavailability in ICR mouse at 5 mg/kg administered as single dose by LC-MS/MS analysis; type: ADME, organism-based; conditions: in vivo
# [22] = molecular target: cAMP-dependent protein kinase catalytic subunit alpha (Homo sapiens) (UniProt P17612); assay: Inhibition of recombinant human His-tagged PKA expressed in Escherichia coli at 0.1 uM by Z'-Lyte assay relative to control
# [23] = molecular target: Serine/threonine-protein kinase Chk1 (Homo sapiens) (UniProt O14757); assay: Inhibition of recombinant full length human His-tagged CHK1 expressed in baculovirus expression system at 1 uM by Z'-Lyte assay relative to control
# [24] = Unbound Cmax in CD-1 mouse plasma at 10 mg/kg, po administered as single dose by LC-MS/MS analysis; type: ADME, organism-based; conditions: in vivo
# [25] = molecular target: RAC-gamma serine/threonine-protein kinase (Homo sapiens) (UniProt Q9Y243); assay: Inhibition of recombinant full length human His-tagged AKT3 expressed in baculovirus expression system at 0.1 uM by TR-FRET assay relative to control
# [26] = molecular target: Mitogen-activated protein kinase kinase kinase 9 (Homo sapiens) (UniProt P80192); assay: Inhibition of recombinant human GST-tagged MLK1 expressed in baculovirus expression system at 1 uM by Z'-Lyte assay relative to control
# [27] = molecular target: Phosphatidylinositol 4,5-bisphosphate 3-kinase catalytic subunit delta isoform (Homo sapiens) (UniProt O00329); assay: Inhibition of PI3K delta (unknown origin) at 0.1 uM by ADP-Glo assay relative to control
# [28] = molecular target: High affinity nerve growth factor receptor (Homo sapiens) (UniProt P04629); assay: Inhibition of recombinant human His-tagged TRKA cytoplasmic domain expressed in baculovirus expression system at 0.1 uM by Z'-Lyte assay relative to control
# Sequence of High affinity nerve growth factor receptor (Homo sapiens) (P04629 33-796 limits assumed): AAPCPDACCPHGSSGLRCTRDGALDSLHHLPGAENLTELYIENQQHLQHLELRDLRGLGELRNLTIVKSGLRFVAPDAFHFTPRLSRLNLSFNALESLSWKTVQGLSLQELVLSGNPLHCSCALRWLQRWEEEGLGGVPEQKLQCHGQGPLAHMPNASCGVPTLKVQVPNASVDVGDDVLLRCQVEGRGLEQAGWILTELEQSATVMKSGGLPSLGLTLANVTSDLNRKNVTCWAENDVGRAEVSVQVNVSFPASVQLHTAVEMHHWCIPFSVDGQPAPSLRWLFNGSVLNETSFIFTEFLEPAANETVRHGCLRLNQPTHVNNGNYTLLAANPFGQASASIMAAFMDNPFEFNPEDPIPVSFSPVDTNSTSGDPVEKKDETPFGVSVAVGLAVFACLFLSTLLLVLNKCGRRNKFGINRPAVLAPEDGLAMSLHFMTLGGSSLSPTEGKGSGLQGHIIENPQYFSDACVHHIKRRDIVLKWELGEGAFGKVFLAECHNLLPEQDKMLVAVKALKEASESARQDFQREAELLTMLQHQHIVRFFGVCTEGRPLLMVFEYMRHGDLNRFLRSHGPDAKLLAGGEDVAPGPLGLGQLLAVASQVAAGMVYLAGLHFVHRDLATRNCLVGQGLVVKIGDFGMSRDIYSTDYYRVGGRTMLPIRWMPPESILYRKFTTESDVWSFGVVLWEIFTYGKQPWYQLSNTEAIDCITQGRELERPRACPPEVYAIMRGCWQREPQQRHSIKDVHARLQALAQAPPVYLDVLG
# [29] = molecular target: ALK tyrosine kinase receptor (Homo sapiens) (UniProt Q9UM73); assay: Inhibition of recombinant N-terminal GST-tagged human ALK cytoplasmic domain (1058 to 1620 residues) expressed in baculovirus expression system at 0.1 uM by TR-FRET assay relative to control
# Sequence of ALK tyrosine kinase receptor (Homo sapiens) (Q9UM73 19-1620 limits assumed): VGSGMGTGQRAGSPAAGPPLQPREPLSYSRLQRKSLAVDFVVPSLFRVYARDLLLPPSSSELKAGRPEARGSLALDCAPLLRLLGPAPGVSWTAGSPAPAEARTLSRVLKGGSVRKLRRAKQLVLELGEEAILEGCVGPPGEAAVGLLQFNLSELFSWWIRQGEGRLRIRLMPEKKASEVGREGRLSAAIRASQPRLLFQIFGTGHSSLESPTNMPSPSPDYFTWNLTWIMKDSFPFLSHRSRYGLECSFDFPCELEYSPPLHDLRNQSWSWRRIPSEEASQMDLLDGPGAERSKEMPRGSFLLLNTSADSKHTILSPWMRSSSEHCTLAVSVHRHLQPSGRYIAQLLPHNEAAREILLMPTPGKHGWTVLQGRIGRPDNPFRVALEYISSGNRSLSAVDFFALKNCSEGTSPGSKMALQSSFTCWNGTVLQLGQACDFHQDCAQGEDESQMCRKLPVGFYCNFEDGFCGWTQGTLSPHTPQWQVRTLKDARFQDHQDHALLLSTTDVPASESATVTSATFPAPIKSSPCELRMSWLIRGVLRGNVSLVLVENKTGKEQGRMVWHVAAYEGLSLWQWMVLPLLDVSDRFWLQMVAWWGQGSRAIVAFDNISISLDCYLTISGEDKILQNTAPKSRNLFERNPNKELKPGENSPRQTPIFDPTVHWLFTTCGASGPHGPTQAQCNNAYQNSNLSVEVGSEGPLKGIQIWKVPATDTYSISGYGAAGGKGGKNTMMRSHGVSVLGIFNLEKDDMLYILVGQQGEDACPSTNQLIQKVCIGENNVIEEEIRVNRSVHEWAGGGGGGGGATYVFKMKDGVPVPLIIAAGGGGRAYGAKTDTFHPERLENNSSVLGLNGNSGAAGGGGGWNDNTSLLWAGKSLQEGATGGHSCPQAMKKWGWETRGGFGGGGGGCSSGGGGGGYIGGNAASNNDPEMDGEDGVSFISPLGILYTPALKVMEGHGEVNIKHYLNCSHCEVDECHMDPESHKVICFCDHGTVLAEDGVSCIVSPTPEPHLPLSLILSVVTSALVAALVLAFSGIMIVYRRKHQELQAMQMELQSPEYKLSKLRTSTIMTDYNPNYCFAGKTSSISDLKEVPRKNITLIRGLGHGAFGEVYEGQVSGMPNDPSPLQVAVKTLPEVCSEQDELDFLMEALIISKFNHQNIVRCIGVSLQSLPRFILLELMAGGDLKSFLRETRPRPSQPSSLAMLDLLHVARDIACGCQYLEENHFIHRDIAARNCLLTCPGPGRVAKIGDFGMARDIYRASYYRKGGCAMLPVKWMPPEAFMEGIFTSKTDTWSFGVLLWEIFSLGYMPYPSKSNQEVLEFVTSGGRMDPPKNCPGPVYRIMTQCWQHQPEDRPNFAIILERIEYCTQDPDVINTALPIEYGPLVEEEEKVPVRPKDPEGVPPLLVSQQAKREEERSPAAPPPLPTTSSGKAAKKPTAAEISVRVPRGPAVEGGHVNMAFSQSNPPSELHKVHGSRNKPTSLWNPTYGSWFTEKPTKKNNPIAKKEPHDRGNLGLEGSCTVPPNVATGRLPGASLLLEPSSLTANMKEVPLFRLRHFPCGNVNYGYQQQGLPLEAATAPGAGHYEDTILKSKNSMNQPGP
smiles,measurement,setting,value
CC1=Nc2c(F)cc(-c3nc(Nc4ccc(C5CCN(C)CC5)cn4)ncc3F)cc2C12CCCC2 [CROZBACICLIB],inhibition,[1],1%
same,inhibition,[2],20%
same,inhibition,[3],-3%
same,inhibition,[4],43%
same,inhibition,[5],16%
same,ILS at 50 mg/kg,[6],162%
same,inhibition,[7],87%
same,inhibition,[8],14%
same,inhibition,[9],-1%
same,inhibition,[10],1%
same,inhibition,[11],-1%
same,inhibition,[12],5%
same,clearance,[13],34.9 mL/min/kg
same,inhibition,[14],4%
same,inhibition in vivo at 25 mg/kg,[15],96%
same,fCmax,[16],1.03 ng/g
same,inhibition,[17],11%
same,inhibition,[18],25%
same,inhibition,[19],1%
same,AUC(0-t) at 24 h,[20],886 ng·h/mL
same,bioavailability,[21],75%
same,inhibition,[22],0%
same,inhibition,[23],0%
same,fCmax,[24],5.73 ng/mL
same,inhibition,[25],10%
same,inhibition,[26],59%
same,inhibition,[27],2%
same,inhibition,[28],2%
same,inhibition,[29],7%
